Source: BindingDB's records for doi:10.1016/j.bmc.2006.07.028 (University of Florence, 2006)

How the values were obtained:
[1] = molecular target: T1, Macrophage metalloelastase (Homo sapiens, UniProt P39900); experiment: Dissociation Constants (KD) Measurements and Enzyme Inhibition Assay (IC50); conditions: pH 7; 25 °C
Protocol: The NMR experiments were performed to determine the binding affinity (KD) for the MMP-12 catalytic domain. The alteration of the chemical shifts induced on 2D 1H-15N HSQC upon the titration with the test compound was analyzed. The fit of the experimental data as a function of ligand concentration provided dissociation constant. The inhibition potency (IC50) was measured by fluorescent enzymatic assays. The compounds were evaluated for their ability to inhibit the hydrolysis of fluorescence-quenched peptide substrate. […] Fitting of hydrolysis rate as a function of inhibitor concentration provided IC50.

[2] = molecular target: T1, Macrophage metalloelastase; experiment: Dissociation Constants (KD) Measurements; conditions: pH 7.2; 25 °C
Protocol: The NMR experiments were performed to determine the binding affinity (KD) for the MMP-12 catalytic domain. The alteration of the chemical shifts induced on 2D 1H-15N HSQC upon the titration with the test compound was analyzed. The fit of the experimental data as a function of ligand concentration provided dissociation constant.

[3] = molecular target: Collagenase 3 (Homo sapiens, UniProt P45452); experiment: Inhibition Potency Measurements; conditions: pH 7; 25 °C
Protocol: (§1) The inhibition potency (IC50) was measured by fluorescent enzymatic assays. The compounds were evaluated for their ability to inhibit the hydrolysis of fluorescence-quenched peptide substrate. […] Fitting of hydrolysis rate as a function of inhibitor concentration provided IC50.

[4] = molecular target: T2, Interstitial collagenase (Homo sapiens, UniProt P03956); experiment: Inhibition Potency Measurements; conditions: pH 7; 25 °C
T2 sequence (P03956 whole entry): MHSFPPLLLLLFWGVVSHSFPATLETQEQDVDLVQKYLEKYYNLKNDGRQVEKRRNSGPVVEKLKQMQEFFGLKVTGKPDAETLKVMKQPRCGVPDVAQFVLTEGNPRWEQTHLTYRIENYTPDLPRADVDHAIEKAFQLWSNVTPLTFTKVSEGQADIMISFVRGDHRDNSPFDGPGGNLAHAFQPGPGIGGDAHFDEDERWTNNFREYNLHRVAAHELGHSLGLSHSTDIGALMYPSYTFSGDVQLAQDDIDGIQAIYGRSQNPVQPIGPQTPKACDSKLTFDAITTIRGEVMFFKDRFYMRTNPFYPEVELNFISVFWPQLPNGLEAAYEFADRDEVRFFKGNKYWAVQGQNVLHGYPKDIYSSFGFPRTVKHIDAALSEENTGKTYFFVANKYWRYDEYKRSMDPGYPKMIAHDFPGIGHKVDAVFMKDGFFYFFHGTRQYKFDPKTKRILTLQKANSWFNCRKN
Protocol: as §1

[5] = molecular target: T3, Matrilysin (Homo sapiens, UniProt P09237); experiment: Inhibition Potency Measurements; conditions: pH 7; 25 °C
T3 sequence (P09237 whole entry): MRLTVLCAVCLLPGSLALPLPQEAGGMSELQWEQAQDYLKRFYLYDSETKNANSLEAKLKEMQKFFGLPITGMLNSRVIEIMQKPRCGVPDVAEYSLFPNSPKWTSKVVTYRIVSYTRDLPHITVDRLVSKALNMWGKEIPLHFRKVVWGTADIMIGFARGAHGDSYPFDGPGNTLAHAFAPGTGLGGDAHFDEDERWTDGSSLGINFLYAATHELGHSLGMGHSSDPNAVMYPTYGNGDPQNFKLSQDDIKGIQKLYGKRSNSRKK
Protocol: as §1

[6] = molecular target: Neutrophil collagenase (Homo sapiens, UniProt P22894); experiment: Inhibition Potency Measurements; conditions: pH 7; 25 °C
Chain of Neutrophil collagenase (P22894 whole entry): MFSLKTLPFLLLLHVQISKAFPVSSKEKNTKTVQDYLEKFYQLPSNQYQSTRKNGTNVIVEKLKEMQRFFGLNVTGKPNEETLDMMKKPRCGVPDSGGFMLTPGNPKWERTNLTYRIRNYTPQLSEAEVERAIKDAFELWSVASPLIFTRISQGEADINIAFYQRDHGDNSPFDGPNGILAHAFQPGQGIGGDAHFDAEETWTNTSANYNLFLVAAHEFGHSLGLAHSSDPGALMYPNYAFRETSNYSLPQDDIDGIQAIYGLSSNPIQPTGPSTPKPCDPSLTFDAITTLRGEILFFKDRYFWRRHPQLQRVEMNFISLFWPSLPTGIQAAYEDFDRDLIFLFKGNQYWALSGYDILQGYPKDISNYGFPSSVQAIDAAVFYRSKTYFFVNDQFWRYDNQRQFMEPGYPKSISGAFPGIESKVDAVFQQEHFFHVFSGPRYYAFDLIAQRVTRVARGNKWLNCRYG
Protocol: as §1

[7] = molecular target: Stromelysin-2 (Homo sapiens, UniProt P09238); experiment: Inhibition Potency Measurements; conditions: pH 7; 25 °C
Chain of Stromelysin-2 (P09238 whole entry): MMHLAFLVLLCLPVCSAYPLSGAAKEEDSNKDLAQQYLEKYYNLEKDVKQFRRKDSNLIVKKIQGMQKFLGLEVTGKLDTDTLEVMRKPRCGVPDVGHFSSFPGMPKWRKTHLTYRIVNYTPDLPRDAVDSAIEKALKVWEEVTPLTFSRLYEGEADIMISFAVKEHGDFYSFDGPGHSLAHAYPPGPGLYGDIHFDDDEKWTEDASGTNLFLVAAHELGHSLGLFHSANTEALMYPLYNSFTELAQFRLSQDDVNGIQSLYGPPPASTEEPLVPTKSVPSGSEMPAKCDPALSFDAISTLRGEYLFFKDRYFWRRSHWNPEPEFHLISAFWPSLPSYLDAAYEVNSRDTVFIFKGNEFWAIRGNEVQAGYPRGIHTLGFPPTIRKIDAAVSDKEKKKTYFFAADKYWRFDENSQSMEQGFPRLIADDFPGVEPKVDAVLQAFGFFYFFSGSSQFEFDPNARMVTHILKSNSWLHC
Protocol: as §1

T1 sequence (P39900 whole entry, the tested form may be a part): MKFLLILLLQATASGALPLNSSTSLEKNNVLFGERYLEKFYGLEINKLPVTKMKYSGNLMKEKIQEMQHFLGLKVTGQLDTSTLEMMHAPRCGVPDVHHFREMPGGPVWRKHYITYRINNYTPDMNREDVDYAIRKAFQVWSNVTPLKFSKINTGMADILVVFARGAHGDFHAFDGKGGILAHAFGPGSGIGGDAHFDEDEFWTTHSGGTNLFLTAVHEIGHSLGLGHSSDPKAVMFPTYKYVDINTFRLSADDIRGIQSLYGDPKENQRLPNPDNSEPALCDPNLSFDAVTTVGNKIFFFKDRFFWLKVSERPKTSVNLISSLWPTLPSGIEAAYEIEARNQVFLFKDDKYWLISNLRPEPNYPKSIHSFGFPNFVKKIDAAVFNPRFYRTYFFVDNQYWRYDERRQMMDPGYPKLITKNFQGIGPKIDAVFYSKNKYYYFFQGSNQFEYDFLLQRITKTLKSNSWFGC

IC50 [1]	Kd [1]	Kd [2]	SMILES	other results
954 µM	> 1000 µM	–	O=C(O)[C@@H]1O[C@H]2CN(Cc3ccc(-c4ccccc4)cc3)C(=O)[C@@H]1O2 [(1R,5S,7R)-2-oxo-3-[(4-phenylphenyl)methyl]-6,8-dioxa-3-azabicyclo[3.2.1]octane-7-carboxylic acid]	–
–	–	> 10 mM	O=C(O)[C@@H]1O[C@H]2CN(Cc3ccccc3)C(=O)[C@@H]1O2 [(1R,5S,7R)-3-benzyl-2-oxo-6,8-dioxa-3-azabicyclo[3.2.1]octane-7-carboxylic acid]	–
–	–	> 10 mM	O=C(NO)[C@@H]1O[C@H]2CN(Cc3ccccc3)C(=O)[C@@H]1O2 [(1R,5S,7R)-3-benzyl-N-hydroxy-2-oxo-6,8-dioxa-3-azabicyclo[3.2.1]octane-7-carboxamide]	–
425 µM	> 500 µM	–	O=C(NO)[C@@H]1O[C@H]2CN(Cc3ccc(-c4ccccc4)cc3)C(=O)[C@@H]1O2 [(1R,5S,7R)-N-hydroxy-2-oxo-3-[(4-phenylphenyl)methyl]-6,8-dioxa-3-azabicyclo[3.2.1]octane-7-carboxamide]	–
–	–	–	O=C(NCc1ccc(-c2ccccc2)cc1)[C@@H]1O[C@H]2CN(C(=O)NO)C[C@@H]1O2 [(1S,5S,7R)-3-N-hydroxy-7-N-[(4-phenylphenyl)methyl]-6,8-dioxa-3-azabicyclo[3.2.1]octane-3,7-dicarboxamide]	IC50 [3]: 778 µM; IC50 [4]: 1.18 mM; IC50 [5]: 1.51 mM; IC50 [6]: 513 µM; IC50 [7]: 865 µM
835 µM	> 1000 µM	–	O=C(O)[C@@H]1O[C@H]2CN(Cc3ccc(-c4ccccc4)cc3)C[C@@H]1O2 [(1S,5S,7R)-3-[(4-phenylphenyl)methyl]-6,8-dioxa-3-azabicyclo[3.2.1]octane-7-carboxylic acid]	–
399 µM	> 500 µM	–	O=C(NO)[C@@H]1O[C@H]2CN(Cc3ccc(-c4ccccc4)cc3)C[C@@H]1O2 [(1S,5S,7R)-N-hydroxy-3-[(4-phenylphenyl)methyl]-6,8-dioxa-3-azabicyclo[3.2.1]octane-7-carboxamide]	–
–	–	3.4 mM	CCOC(=O)C1CCN(C(=O)NO)CC1 [ethyl 1-(hydroxycarbamoyl)piperidine-4-carboxylate]	–

SMILES	IC50 [1]	Kd [1]	Kd [2]	other results
O=C(O)[C@@H]1O[C@H]2CN(Cc3ccccc3)C[C@@H]1O2 [(1S,5S,7R)-3-benzyl-6,8-dioxa-3-azabicyclo[3.2.1]octane-7-carboxylic acid]	–	–	> 10 mM	–
